The test system of one test is human platelets. Briefly: Inhibition of the arachidonic acid-induced aggregation of human platelets in vitro. In kind it is cell-based. The note with it: human platelet-rich plasma; 2×10^-4 M arachidonic acid; preincubation 10 min at 37° C. The protocol: 1. Inhibition of the arachidonic acid-induced aggregation of human platelets in vitro.
Blood is taken, by careful cannulation of the antecubital vein, from apparently healthy male and female volunteers, who have taken no medicaments in the preceding 10-day period, and is immediately stabilized with sodium citrate (ad. 0.38%). Platelet-rich plasma (PRP) is obtained in the supernatant by centrifugation at 140×g for 15 minutes, and the platelet content of this should be in the range 2.5-3.5×10^8 /ml (Coulter counter). The platelet aggregation is followed optically by measurement of the transmission of light in a Born aggregometer. The total volume of the test mix is 0.25 ml. The preincubation time at 37° C. with the test product is 10 min, and aggregation is then induced with 2×10^-4 M arachidonic acid. The test product is, as a rule, tested in five different concentrations in the PRP from three different donors. Dose-effect curves are drawn from the maximal aggregation amplitudes in each case, and the IC50 values* are determined graphically. The measurements are carried out in the period 1-6 hours after blood sampling. […]
The following IC50 values for the inhibition of the arachidonic acid-induced aggregation of human platelets in vitro were determined by the method described above for the compounds according to the invention: […]

Test [1] concerns Thrombin-induced TXA2 release. Briefly: Thrombin-induced TXA2 release in platelet-rich human plasma in vitro (TXB2 determined radioimmunologically). In kind it is cell-based. The note with it: 0.5 h, relative to without test substance (=100%); for activity at 1 µM: test substance 10^-6 mol/l; for activity at 0.1 µM: test substance 10^-7 mol/l. The procedure:
2. Thrombin-induced TXA2 release in platelet-rich human plasma in vitro
Blood is taken, by careful cannulation of the antecubital vein, from apparently healthy male and female volunteers, who have taken no medicaments in the preceding 10-day period, and is immediately stabilized with sodium citrate (ad. 0.38%). Platelet-rich plasma (PRP) is obtained in the supernatant by centrifugation at 140×g for 15 minutes, and the platelet content of this should be in the range 2.5-3.5×10^8 /ml. The platelets are sedimented by renewed centrifugation (10 min at 2,000×g), and then resolubilized in Tyrode's solution (about 7×10^7 platelets/ml, total volume per measurement 0.5 ml). After addition of test substance, the mixture is incubated at 37° C. for 10 min, and then 7.2×10^-7 M arachidonic acid and 0.5 U thrombin are added, and incubation is carried out at 37° C. for 30 min. This is stopped in an ice bath and, after addition of tracer and TXB2 -specific antibodies (NEN, Dreieich), the TXB2 content is determined radioimmunologically (TXA2 is unstable under the experimental conditions and thus cannot be measured. The stable hydrolysis product TXB2 is measured in its place). The measured variable is the relative TXB2 content in the platelet incubations from two or three different donors with and without (=100%) the test substance.
The following figures for the TXB2 release after administration of the test substance were determined, for example, for the compounds according to the invention by the method described above: […]

The subject of a further test is laser-induced thrombosis. Briefly: Inhibition of laser-induced thrombosis. The note with it: one hour before start, rat mesentery arterioles. In kind it is in vivo, Sprague-Dawley rats. The protocol: 3. Inhibition of laser-induced thrombosis
The investigations of the compounds according to the invention in the model of laser-induced thrombosis are carried out on male or female Sprague-Dawley rats with a body weight of about 200 g. The animals to be investigated are premedicated s.c. with 0.1 mg of atropine sulfate in solution, and anesthetized i.p. with 100 mg of ketamine hydrochloride and 4 mg of xylazine per kg of body weight. Arterioles from the mesentery, with a diameter of 12-25 μm, are used for the investigation. During the measurement, the exposed mesentery is hyperfused with warmed physiological NaCl (37° C.) or is covered with degassed liquid paraffin. The beam of a 4 W argon laser (supplied by Spectra Physics, Darmstadt, FRG) is introduced coaxially into the inverted ray path of a microscope (ICM 405, LD-Epilan 40/0.60; supplied by Zeiss, Oberkochen, FRG) by means of a ray adaptation and adjustment system (supplied by BTG, Munich, FRG). The wavelength used is 514.5 nm, with an energy above the objective of 40 mW. The single-shot exposure time is 1/15 sec. The diameter of the effective laser beam on the vessel is 10 μm, and with repeated exposure the next shot takes place 5 μm upstream in each case, directly on the vessel wall. All the measurement procedures are filmed by video camera (Sony, Trinicon tube) and stored in a recorder (Sony, U-matic 3/4). A survey image of the terminal vessels which are to be investigated is provided by the transillumination method using the same microscope with low magnification (LD-Epilan 8/0.20). A video-analyzer and a correlator are used to determine the rate of flow in the arterioles under investigation. […]
The number of shots needed to induce a defined thrombus was counted. The frequency of the laser flashes was one lesion every 2 minutes, all the thrombi with a minimum size of 1/4 of the vessel radius which were formed during the observation period being counted and measured. The results of the experiment were statistically analyzed using the X^2 test (L. Cavalli-Sforza, Biometrie, Stuttgart, 1969, page 49 et seq.).

Where a name gives a salt, the structure may show the parent alone.

A word on the IC50: it is the point on the concentration scale where inhibition reaches its midpoint. High values mean lower potency, low ones higher potency. Take `CC(c1ccc2cc(C(=O)O)ccc2c1)n1ccnc1` (stereo not shown) [Example 2, 6-[1-(1-Imidazolyl)ethyl]-2-naphthoic acid hydrochloride]: the IC50 with human platelets is 3000 nM. Also, in test [1], the activity at 1 µM worked out at 31% and the activity at 0.1 µM is 55%.

In turn, `Cc1cncn1Cc1ccc2cc(C(=O)O)ccc2c1.Cl` [Example 4, 6-(5-Methyl-1-imidazolyl)methyl-2-naphthoic acid hydrochloride] registered an IC50 in the test on human platelets of 540 nM. In addition, the “Number of laser shots to form a thrombus (compared with control)” value with laser-induced thrombosis (1 mg/kg p.o.) was “+16%”; with laser-induced thrombosis (5 mg/kg p.o.), “+53%”; with laser-induced thrombosis (10 mg/kg p.o.) it was “+96%”. The molecule also returned an activity at 1 µM in test [1] of 9%. In test [1], this molecule gave an activity at 0.1 µM of 19%. The same molecule yielded an activity at 0.01 µM in test [1] (test substance 10^-8 mol/l) of 98%.

(Values after patent US4778817A, “Naphthyl imidazolyl compounds and pharmaceutical compositions” (priority 1985, dated 1988).)
